Assays:
A673 = experiment: Inhibition of cell proliferation of human A673 cells incubated for 72 hrs by CyQUANT assay; type: functional, cell-based; settings: A673, 72 h
HCC70 = experiment: Inhibition of cell proliferation of human HCC70 cells incubated for 72 hrs by CyQUANT assay; type: functional, cell-based; settings: HCC70, 72 h

O[C@H]1CC[C@@H](c2cccc3c(-c4nc(N[C@H]5CCCNC5)ncc4C(F)(F)F)c[nH]c32)CC1
IC50 (A673): 200 nM

CNC(=O)[C@H]1CNC[C@@H](Nc2ncc(C(F)(F)F)c(-c3c[nH]c4ccccc34)n2)C1
IC50 (A673): 200 nM

OC1CCC(c2cccc3c(-c4nc(N[C@H]5CCCNC5)ncc4C(F)(F)F)c[nH]c23)CC1 (some centres undefined)
IC50 (A673): < 20 nM

FC(F)(F)c1cnc(N[C@H]2CCCNC2)nc1-c1c[nH]c2ccc(Cl)cc12
IC50 (A673): < 20 nM

CC1(C)CCNC[C@H]1Nc1ncc(C(F)(F)F)c(-c2c[nH]c3ccccc23)n1
IC50 (A673): 200 nM

Fc1cccc2c(-c3nc(N[C@H]4CCCNC4)ncc3Cl)n[nH]c12
IC50 (A673): < 20 nM

C[C@H]1CCNC[C@@H]1Nc1ncc(C(F)(F)F)c(-c2c[nH]c3ccccc23)n1
IC50 (HCC70): 1000 nM

CC[C@@]1(O)CCN(C(=O)c2ccc3c(-c4nc(N[C@H]5CCCNC5)ncc4C(F)(F)F)c[nH]c3c2)C1 (single isomer, unassigned)
IC50 (HCC70): 1000 nM

N#Cc1ccc2c(-c3nc(N[C@H]4CCC5(CCC5)NC4)ncc3C(F)(F)F)c[nH]c2c1 (single isomer, unassigned)
IC50 (HCC70): 1000 nM

CCc1cnc(N[C@H]2CCCNC2)nc1-c1n[nH]c2ccccc12
IC50 (A673): 20 nM

FC(F)(F)c1cnc(N[C@H]2CCCNC2)nc1-c1c[nH]c2cc(-c3cn[nH]c3)ccc12
IC50 (A673): 20 nM

CNC(=O)c1ccc2c(-c3nc(N[C@H]4CCCNC4)ncc3C(F)(F)F)c[nH]c2c1
IC50 (A673): 20 nM

Fc1cncc(-c2ccc3c(-c4nc(N[C@H]5CCCNC5)ncc4C(F)(F)F)c[nH]c3c2)c1
IC50 (HCC70): 100 nM

Cc1cccc2c(-c3nc(N[C@H]4CCCNC4)ncc3CC(C)C)c[nH]c12
IC50 (A673): 200 nM

N#Cc1ccc2c(-c3nc(N[C@H]4CCCNC4)ncc3Cl)c[nH]c2c1
IC50 (A673): < 20 nM | IC50 (HCC70): < 100 nM

Fc1cccc2c(-c3nc(N[C@H]4CCCNC4)ncc3Cl)c[nH]c12
IC50 (A673): < 20 nM | IC50 (HCC70): 100 nM

CC1CCC(Nc2ncc(Cl)c(-c3c[nH]c4ccccc34)n2)CN1 (centres undefined)
IC50 (A673): 20 nM

CNC(=O)[C@@H]1CNC[C@H](Nc2ncc(C(F)(F)F)c(-c3c[nH]c4ccccc34)n2)C1
IC50 (A673): 20 nM

CC1NCCCC1Nc1ncc(Cl)c(-c2c[nH]c3ccccc23)n1 (centres undefined)
IC50 (A673): 20 nM

FC(F)(F)c1cnc(N[C@H]2CCCNC2)nc1-c1c[nH]c2cnc(Cl)cc12
IC50 (A673): 20 nM | IC50 (HCC70): 100 nM

Clc1cnc(NC2(c3ccccc3)CCCNC2)nc1-c1c[nH]c2ccccc12 (centres undefined)
IC50 (A673): 200 nM

CC(=O)c1cccc2c(-c3nc(N[C@H]4CCCNC4)ncc3Cl)c[nH]c12
IC50 (A673): < 20 nM

FC(F)(F)Cc1cnc(N[C@H]2CCCNC2)nc1-c1n[nH]c2ccccc12
IC50 (A673): 20 nM

FC(F)(F)c1cnc(N[C@H]2CCCNC2)nc1-c1c[nH]c2ccc(-c3cn[nH]c3)cc12
IC50 (A673): 200 nM

CCOP(=O)(OCC)c1ccc2c(-c3nc(N[C@H]4CCCNC4)ncc3C(F)(F)F)c[nH]c2c1
IC50 (A673): 20 nM

CNC(=O)[C@@H]1CNC[C@@H](Nc2ncc(C(F)(F)F)c(-c3c[nH]c4ccccc34)n2)C1
IC50 (A673): 200 nM

N#Cc1ccc2[nH]cc(-c3nc(N[C@H]4CCCNC4)ncc3C(F)(F)F)c2c1
IC50 (A673): 200 nM

CC(C)c1cnc(N[C@H]2CCCNC2)nc1-c1c[nH]c2ccccc12
IC50 (A673): 200 nM | IC50 (HCC70): 1000 nM

O[C@@H]1CCNC[C@H]1Nc1ncc(Cl)c(-c2c[nH]c3ccccc23)n1
IC50 (A673): 200 nM

O=C(c1ccc2c(-c3nc(N[C@H]4CCCNC4)ncc3C(F)(F)F)c[nH]c2c1)N1CC[C@](O)(C(F)(F)F)C1 (single isomer, unassigned)
IC50 (HCC70): 1000 nM

Clc1cnc(N[C@H]2CCCNC2)nc1-c1c[nH]c2ccc(N3CCOCC3)cc12
IC50 (A673): 20 nM

Cc1[nH]c2ccccc2c1-c1nc(N[C@H]2CCCNC2)ncc1Cl
IC50 (A673): 20 nM

CCc1cnc(N[C@@H]2CCCNC2)nc1-c1n[nH]c2ncccc12
IC50 (A673): 20 nM

CNC(=O)c1cccc2c(-c3nc(N[C@H]4CCCNC4)ncc3C(F)(F)F)cn(C)c12
IC50 (HCC70): 1000 nM

Clc1cnc(N[C@H]2CCCNC2)nc1-c1cnn2ccccc12
IC50 (A673): 20 nM | IC50 (HCC70): 100 nM

CS(=O)(=O)c1cccc2c(-c3nc(N[C@H]4CCCNC4)ncc3C(F)(F)F)c[nH]c12
IC50 (A673): < 20 nM | IC50 (HCC70): < 100 nM

C[C@H](O)c1cnc(N[C@H]2CCCNC2)nc1-c1c[nH]c2ccccc12
IC50 (A673): 200 nM

C[C@@H](O)c1cnc(N[C@H]2CCCNC2)nc1-c1c[nH]c2ccccc12
IC50 (A673): 200 nM

COC1CCN(C(=O)c2ccc3c(-c4nc(N[C@H]5CCCNC5)ncc4C(F)(F)F)c[nH]c3c2)C1 (single isomer, unassigned)
IC50 (HCC70): 100 nM

Cn1cc(-c2ccc3c(-c4nc(N[C@H]5CCCNC5)ncc4C(F)(F)F)c[nH]c3c2)cn1
IC50 (A673): < 20 nM

Fc1cnc2[nH]cc(-c3nc(N[C@H]4CCCNC4)ncc3C(F)(F)F)c2c1
IC50 (A673): < 20 nM | IC50 (HCC70): < 100 nM

COCCn1cc(-c2nc(N[C@H]3CCCNC3)ncc2Cl)c2ccccc21
IC50 (A673): 200 nM

CN1CCC[C@H](Nc2ncc(C(F)(F)F)c(-c3c[nH]c4cc(S(=O)(=O)N5CCC(C)(O)C5)ccc34)n2)C1 (some centres undefined)
IC50 (HCC70): 1000 nM

CCc1cnc(N[C@H]2CCCNC2)nc1-c1c[nH]c2ccccc12
IC50 (A673): 20 nM

COCCn1cc(-c2nc(N[C@H]3CCCNC3)ncc2C(F)(F)F)c2ccccc21
IC50 (A673): 200 nM

Clc1cnc(N[C@H]2CCCNC2)nc1-c1c[nH]c2ccncc12
IC50 (A673): 20 nM

CCc1cnc(N[C@H]2CCCNC2)nc1-c1c[nH]c2c(C)cccc12
IC50 (A673): 20 nM

CC1CCNCC1Nc1ncc(C(F)(F)F)c(-c2c[nH]c3ccccc23)n1 (single isomer, unassigned)
IC50 (HCC70): 100 nM

C[C@@H]1CNC[C@@H](Nc2ncc(Cl)c(-c3c[nH]c4ccccc34)n2)C1
IC50 (A673): 20 nM

Clc1cnc(N[C@@H]2CCCNC2)nc1-c1c[nH]c2ccccc12
IC50 (A673): 20 nM

CC(C)n1cc(-c2nc(N[C@H]3CCCNC3)ncc2Cl)c2ccccc21
IC50 (A673): 200 nM

Clc1cnc(N[C@H]2CCCNC2)nc1-c1c[nH]c2cccnc12
IC50 (A673): 20 nM

Fc1cccc2c(-c3nc(N[C@H]4CCCNC4)ncc3C(F)(F)F)n[nH]c12
IC50 (A673): < 20 nM

Cc1cccc2c(-c3nc(N[C@H]4CCCNC4)ncc3Cl)c[nH]c12
IC50 (A673): < 20 nM | IC50 (HCC70): < 100 nM

CCc1cnc(N[C@H]2CCCNC2)nc1-c1c[nH]c2ncc(F)cc12
IC50 (A673): 200 nM

FC(F)(F)c1cnc(N[C@H]2CCCNC2)nc1-c1c[nH]c2c(Cl)cccc12
IC50 (A673): < 20 nM

Clc1cnc(N[C@H]2CCCNC2)nc1-c1c[nH]c2ncccc12
IC50 (A673): 20 nM | IC50 (HCC70): < 100 nM

CC1(O)CCN(C(=O)c2ccc3c(-c4nc(N[C@H]5CCCNC5)ncc4C(F)(F)F)c[nH]c3c2)C1 (single isomer, unassigned)
IC50 (A673): 200 nM | IC50 (HCC70): 100 nM

Clc1cnc(NC2CNCCC2c2ccccc2)nc1-c1c[nH]c2ccccc12 (centres undefined)
IC50 (A673): 200 nM

Cn1cc(-c2ccc3[nH]cc(-c4nc(N[C@H]5CCCNC5)ncc4C(F)(F)F)c3c2)cn1
IC50 (A673): 200 nM

O=C(O)c1cccc2c(-c3nc(N[C@H]4CCCNC4)ncc3Cl)c[nH]c12
IC50 (A673): 200 nM

Fc1ccc2[nH]cc(-c3nc(N[C@H]4CCCNC4)ncc3Cl)c2c1
IC50 (A673): 20 nM | IC50 (HCC70): 100 nM

CC[C@]1(O)CCN(C(=O)c2ccc3c(-c4nc(N[C@H]5CCCNC5)ncc4C(F)(F)F)c[nH]c3c2)C1 (single isomer, unassigned)
IC50 (HCC70): 100 nM

CC1(C)CCNC[C@@H]1Nc1ncc(C(F)(F)F)c(-c2c[nH]c3ccccc23)n1 (single isomer, unassigned)
IC50 (A673): 20 nM

Cc1cnc(N[C@H]2CCCNC2)nc1-c1c[nH]c2ccccc12
IC50 (A673): 20 nM

F[C@@H]1CCNC[C@H]1Nc1ncc(Cl)c(-c2c[nH]c3ccccc23)n1
IC50 (A673): 20 nM

FC(F)(F)c1cnc(N[C@H]2CCCNC2)nc1-c1n[nH]c2ccccc12
IC50 (A673): 20 nM

Clc1cnc(N[C@H]2CCCNC2)nc1-c1c[nH]c2ccccc12
IC50 (A673): ≤ 20 nM

Cc1cccc2c(-c3nc(N[C@H]4CCCNC4)ncc3C(F)(F)F)c[nH]c12
IC50 (A673): < 20 nM

Clc1cnc(N[C@H]2CCCNC2)nc1-c1c[nH]c2c(N3CCOCC3)cccc12
IC50 (A673): 20 nM

CNC(=O)[C@H]1CNC[C@H](Nc2ncc(C(F)(F)F)c(-c3c[nH]c4ccccc34)n2)C1
IC50 (A673): 20 nM

N#C[C@@H]1CCN(C(=O)c2ccc3c(-c4nc(N[C@H]5CCCNC5)ncc4C(F)(F)F)c[nH]c3c2)C1
IC50 (A673): 20 nM | IC50 (HCC70): 100 nM

FC(F)(F)c1cnc(N[C@H]2CCCNC2)nc1-c1c[nH]c2cc(-c3cccc(Oc4ccccc4)c3)ccc12
IC50 (HCC70): 1000 nM

N#Cc1cccc2c(-c3nc(N[C@H]4CCCNC4)ncc3C(F)(F)F)c[nH]c12
IC50 (A673): < 20 nM

FC(F)(F)c1cnc(N[C@H]2CNC[C@@H](c3nnc4ccccn34)C2)nc1-c1c[nH]c2ccccc12
IC50 (A673): 200 nM

Cc1cccc2c(-c3nc(N[C@H]4CCCNC4)ncc3F)c[nH]c12
IC50 (A673): 200 nM

FC(F)(F)c1cnc(N[C@@H]2CNC[C@H](c3nnc4ccccn34)C2)nc1-c1c[nH]c2ccccc12
IC50 (A673): ≤ 20 nM

C[C@H]1CCNC[C@@H]1Nc1ncc(Cl)c(-c2c[nH]c3ccccc23)n1
IC50 (A673): 200 nM

CNC(=O)c1cccc2c(-c3nc(N[C@H]4CCCNC4)ncc3C(F)(F)F)c[nH]c12
IC50 (A673): 20 nM | IC50 (HCC70): 100 nM

Cc1ccc2[nH]cc(-c3nc(N[C@H]4CCCNC4)ncc3Cl)c2c1
IC50 (A673): 200 nM

CC1(Nc2ncc(Cl)c(-c3c[nH]c4ccccc34)n2)CCCNC1 (centres undefined)
IC50 (A673): 200 nM

Brc1cnc(N[C@@H]2CCCNC2)nc1-c1c[nH]c2ccccc12
IC50 (A673): < 20 nM

N#Cc1ccc2c(-c3nc(N[C@@H]4CCC5(CCC5)NC4)ncc3C(F)(F)F)c[nH]c2c1 (single isomer, unassigned)
IC50 (HCC70): 100 nM

O=C(c1ccc2c(-c3nc(N[C@H]4CCCNC4)ncc3C(F)(F)F)c[nH]c2c1)N1CC[C@@](O)(C(F)(F)F)C1 (single isomer, unassigned)
IC50 (HCC70): 100 nM

Clc1cnc(N[C@H]2CCCNC2)nc1-c1cn(-c2ccccc2)c2ccccc12
IC50 (A673): 200 nM

CCOP(=O)(OCC)c1ccc2[nH]cc(-c3nc(N[C@H]4CCCNC4)ncc3C(F)(F)F)c2c1
IC50 (A673): 200 nM

N#Cc1ccc2c(-c3nc(N[C@@H]4CCCNC4)ncc3C(F)(F)F)c[nH]c2c1-c1ccnnc1
IC50 (A673): < 20 nM | IC50 (HCC70): < 100 nM

Fc1cc2[nH]nc(-c3nc(N[C@H]4CCCNC4)ncc3C(F)(F)F)c2cc1F
IC50 (A673): < 20 nM

Cc1[nH]ncc1-c1cccc2c(-c3nc(N[C@@H]4CCCNC4)ncc3C(F)(F)F)c[nH]c12
IC50 (A673): < 20 nM | IC50 (HCC70): 1000 nM
